Reference: the supplement of paper PMC10307832

Experiments:
Assay in all cases: relative viability (nuclei count vs DMSO), 5 days (fraction); higher = more cells survive
AZ628 + Bortezomib = compound: CC1=C(C=C(C=C1)NC(=O)C2=CC(=CC=C2)C(C)(C)C#N)NC3=CC4=C(C=C3)N=CN(C4=O)C [AZ628] + CC(C)C[C@H](NC(=O)[C@H](Cc1ccccc1)NC(=O)c1cnccn1)B(O)O [Bortezomib] (partner 0.002 µM)
Outline: (§1)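 Relative viability is defined as nuclei in treated wells over nuclei in vehicle wells. Duplicate plates were run and medians reported. Lung cancer cell lines in 1536-well plates were dosed by pin tool one day after seeding, with one drug or with a fixed anchor-drug dose plus five library-drug doses (not always all listed) in √10 steps, and nuclei were counted after 5 days.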

[1] = compound: C[As](C)SC[C@H](NC(=O)CC[C@H](N)C(=O)O)C(=O)NCC(=O)O [Darinaparsin] + CC(C)C[C@H](NC(=O)[C@H](Cc1ccccc1)NC(=O)c1cnccn1)B(O)O [Bortezomib] (partner 0.002 µM)
Outline: as §1

QS11 + Phenformin = compound: C1CC2=C(C1)C=C(C=C2)OC3=NC(=C4C(=N3)N(C=N4)CC5=CC=C(C=C5)C6=CC=CC=C6)N[C@@H](CC7=CC=CC=C7)CO [QS11] + N=C(N)NC(=N)NCCc1ccccc1 [Phenformin] (partner 250 µM)
Outline: as §1

QS11 + OSI-027 = compound: C1CC2=C(C1)C=C(C=C2)OC3=NC(=C4C(=N3)N(C=N4)CC5=CC=C(C=C5)C6=CC=CC=C6)N[C@@H](CC7=CC=CC=C7)CO [QS11] + COc1cccc2cc(-c3nc([C@H]4CC[C@H](C(=O)O)CC4)n4ncnc(N)c34)[nH]c12 [OSI-027] (partner 0.5 µM)
Outline: as §1

| Cell Line | relative viability (AZ628 + Bortezomib; first compound 0.08 µM) | relative viability (AZ628 + Bortezomib; first compound 0.253 µM) | relative viability (AZ628 + Bortezomib; first compound 0.8 µM) | relative viability (AZ628 + Bortezomib; first compound 2.53 µM) | relative viability (AZ628 + Bortezomib; first compound 8 µM) | relative viability ([1]; first compound 0.08 µM) | relative viability ([1]; first compound 0.8 µM) | relative viability ([1]; first compound 2.53 µM) | relative viability ([1]; first compound 8 µM) | relative viability (QS11 + Phenformin; first compound 0.08 µM) | relative viability (QS11 + Phenformin; first compound 0.253 µM) | relative viability (QS11 + Phenformin; first compound 0.8 µM) | relative viability (QS11 + Phenformin; first compound 2.53 µM) | relative viability (QS11 + Phenformin; first compound 8 µM) | relative viability (QS11 + OSI-027; first compound 0.08 µM) | relative viability (QS11 + OSI-027; first compound 0.253 µM) | relative viability (QS11 + OSI-027; first compound 0.8 µM) | relative viability (QS11 + OSI-027; first compound 2.53 µM) | relative viability (QS11 + OSI-027; first compound 8 µM) |
| --- | --- | --- | --- | --- | --- | --- | --- | --- | --- | --- | --- | --- | --- | --- | --- | --- | --- | --- | --- |
| NCI-H1437 | 0.488 | 0.544 | 0.425 | 0.486 | 0.556 | 0.562 | 0.558 | 0.468 | 0.584 | 0.302 | 0.225 | 0.285 | 0.334 | 0.283 | 0.95 | 0.946 | 0.77 | 0.834 | 0.827 |
| HCC-366 | 1.04 | 0.894 | 0.957 | 0.999 | 0.681 | 1.71 | 1.11 | 0.768 | 1.94 | 0.607 | 0.613 |  | 0.589 | 0.504 | 0.877 | 0.749 |  | 0.742 | 0.257 |
| NCI-H1755 | 0.947 | 0.878 | 0.909 | 0.942 | 0.818 | 1.04 | 0.94 | 0.915 | 1.18 | 0.594 | 0.649 | 0.502 | 0.533 | 0.51 | 0.685 | 0.725 | 0.592 | 0.604 | 0.486 |
| NCI-H3122 | 0.987 | 0.887 | 0.723 | 0.696 | 0.444 | 1.04 | 1.02 | 1.08 | 1.13 | 0.376 | 0.399 |  | 0.384 | 0.322 | 1.03 | 1.41 |  | 0.994 | 0.757 |
| ChaGo-K-1 | 0.987 |  | 0.85 | 1.11 | 1.15 | 1.18 | 1.07 | 1.01 | 0.767 | 0.366 | 0.561 | 0.542 | 0.588 | 0.421 | 0.358 | 0.666 | 0.749 | 0.659 | 0.569 |
| SW 1573 | 0.952 | 0.911 | 0.886 | 0.946 | 0.621 | 1.02 | 1.01 | 1.05 | 1.29 | 0.407 | 0.374 | 0.413 | 0.442 | 0.346 | 0.583 | 0.655 | 0.734 | 0.465 | 0.278 |
| NCI-H2085 | 1.2 | 1.02 | 1.19 | 1.07 | 1.06 | 0.987 | 0.996 | 1.07 | 1.16 | 0.707 | 0.681 | 0.671 | 0.726 | 0.844 | 0.724 | 0.655 | 0.886 | 0.724 | 0.831 |
| NCI-H727 | 0.604 | 0.487 | 0.389 | 0.42 | 0.295 | 0.912 | 0.742 | 0.963 | 0.986 | 0.88 | 0.442 | 0.459 | 0.557 | 0.372 | 0.576 | 0.708 | 0.579 | 0.404 | 0.461 |
| NCI-H2405 | 0.756 | 0.864 | 0.548 | 0.68 | 1.09 | 1.08 | 0.936 | 0.899 | 1.09 | 0.361 | 0.443 | 0.372 | 0.45 | 0.399 | 0.626 | 0.663 | 0.64 | 0.654 | 0.694 |
| NCI-H1666 | 0.812 | 0.715 | 0.567 | 0.621 | 0.705 | 0.916 | 0.882 | 0.978 | 0.847 | 0.556 | 0.519 | 0.55 | 0.479 | 0.398 | 0.856 | 0.696 | 0.667 | 0.604 | 0.606 |
| BEN | 0.882 | 0.653 | 0.666 | 0.813 | 0.616 | 0.889 | 0.846 | 0.654 | 1 | 0.262 | 0.3 | 0.29 | 0.258 | 0.251 | 0.304 | 0.316 | 0.309 | 0.33 | 0.3 |
| NCI-H1650 | 0.165 | 0.203 | 0.18 | 0.203 | 0.214 | 0.216 | 0.193 | 0.193 | 0.195 | 0.374 | 0.472 | 0.376 | 0.474 | 0.391 | 0.58 | 0.549 | 0.642 | 0.547 | 0.396 |
| HARA | 1.1 | 1.08 | 1.08 | 1.03 | 0.568 | 1.49 | 1.12 | 1.06 | 1.25 | 0.368 | 0.448 |  | 0.479 | 0.63 | 0.41 | 0.453 |  | 0.457 | 0.595 |
| RERF-LC-KJ | 1.22 | 1.14 | 1.29 | 1.12 | 1.03 | 1.33 | 1.14 | 1.14 | 1.12 | 0.407 | 0.41 | 0.438 | 0.378 | 0.315 | 0.519 | 0.578 | 0.543 | 0.448 | 0.438 |
| NCI-H1975 | 0.409 | 0.343 | 0.303 | 0.281 | 0.241 | 0.444 | 0.4 | 0.291 | 0.306 | 0.419 | 0.406 | 0.429 | 0.493 | 0.515 | 0.737 | 0.674 | 0.741 | 0.659 | 0.805 |
| EPLC-272H | 0.87 | 0.803 | 0.797 | 0.525 | 0.877 | 1.07 | 0.969 | 0.74 | 0.9 |  | 0.327 | 0.312 | 0.287 | 0.304 |  | 0.287 | 0.253 | 0.259 | 0.26 |
| HCC-15 | 1.06 | 0.951 | 0.873 | 0.866 | 0.661 | 1.25 | 1.06 | 0.863 | 1.28 | 0.541 | 0.519 | 0.445 | 0.44 | 0.5 | 0.641 | 0.674 | 0.646 | 0.665 | 0.475 |
| COR-L 105 | 1.01 | 0.978 | 0.885 | 0.867 | 0.544 | 0.944 | 0.78 |  | 0.636 | 0.511 | 0.407 | 0.475 | 0.501 | 0.475 | 0.711 | 0.521 | 0.547 | 0.629 | 0.447 |
| NCI-H1915 | 0.939 | 1.02 | 0.771 | 0.598 | 0.716 | 1.08 | 1.03 | 0.844 | 1.25 | 0.362 | 0.369 |  | 0.376 | 0.348 | 0.61 | 0.617 |  | 0.622 | 0.591 |
| NCI-H2347 | 0.859 | 0.962 | 0.721 | 0.828 | 0.623 | 1.18 | 0.742 | 0.831 | 1.16 | 0.374 | 0.395 | 0.362 | 0.364 | 0.637 | 0.489 | 0.474 | 0.411 | 0.371 | 0.347 |
| EKVX | 1.17 | 1.11 | 1.21 | 1.09 | 0.603 | 1.14 | 0.96 | 0.946 | 1.41 | 0.228 | 0.224 |  | 0.228 | 0.255 | 0.644 | 0.635 |  | 0.596 | 0.693 |
| LC-2-ad | 1.06 | 0.926 | 0.972 | 0.972 | 0.751 | 1.2 | 1.02 | 0.951 | 1.33 | 0.535 | 0.482 | 0.535 | 0.551 | 0.599 | 0.783 | 0.413 | 0.873 | 0.847 | 0.79 |
